Measured values from PMC3754837 (Neuropharmacology, 2013).

Legend:
[1] = molecular target: T1, m5-HT2C (C57Bl/6 mouse 5-HT2C-VNV receptor) (Mus musculus, UniProt P34968, I157V/I161V); test: saturation radioligand binding, HEK-293 membranes
T1 sequence (P34968 33-459 I157V/I161V): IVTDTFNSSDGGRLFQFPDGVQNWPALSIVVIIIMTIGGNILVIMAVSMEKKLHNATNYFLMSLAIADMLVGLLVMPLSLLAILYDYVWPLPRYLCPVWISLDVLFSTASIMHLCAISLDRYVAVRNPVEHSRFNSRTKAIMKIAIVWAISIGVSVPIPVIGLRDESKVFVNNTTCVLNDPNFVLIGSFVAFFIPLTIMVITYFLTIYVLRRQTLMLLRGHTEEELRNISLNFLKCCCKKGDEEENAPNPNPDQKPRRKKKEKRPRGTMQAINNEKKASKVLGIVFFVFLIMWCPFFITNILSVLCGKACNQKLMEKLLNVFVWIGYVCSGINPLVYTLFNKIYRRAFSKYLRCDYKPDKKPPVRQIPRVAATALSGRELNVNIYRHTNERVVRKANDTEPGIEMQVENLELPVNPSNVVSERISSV

[2] = molecular target: T1, m5-HT2C (C57Bl/6 mouse 5-HT2C-VNV receptor); test: [3H]-inositol phosphate accumulation; assay type: cell-based
[3] = molecular target: T1, m5-HT2C (C57Bl/6 mouse 5-HT2C-VNV receptor); test: [3H]-mesulergine competition, HEK-293 membranes; assay type: binding
[4] = molecular target: T2, m5-HT2A (C57Bl/6 mouse 5-HT2A receptor) (Mus musculus, UniProt P35363); test: [3H]-ketanserin competition, HEK-293 membranes; assay type: binding
[5] = molecular target: T3, h5-HT2A (human 5-HT2A receptor) (Homo sapiens, UniProt P28223); test: [3H]-ketanserin competition, HEK-293 membranes; assay type: binding
[6] = molecular target: T4, h5-HT2C (human 5-HT2C-INI receptor) (Homo sapiens, UniProt P28335); test: biochemical; assay type: binding
T4 sequence (P28335 33-458): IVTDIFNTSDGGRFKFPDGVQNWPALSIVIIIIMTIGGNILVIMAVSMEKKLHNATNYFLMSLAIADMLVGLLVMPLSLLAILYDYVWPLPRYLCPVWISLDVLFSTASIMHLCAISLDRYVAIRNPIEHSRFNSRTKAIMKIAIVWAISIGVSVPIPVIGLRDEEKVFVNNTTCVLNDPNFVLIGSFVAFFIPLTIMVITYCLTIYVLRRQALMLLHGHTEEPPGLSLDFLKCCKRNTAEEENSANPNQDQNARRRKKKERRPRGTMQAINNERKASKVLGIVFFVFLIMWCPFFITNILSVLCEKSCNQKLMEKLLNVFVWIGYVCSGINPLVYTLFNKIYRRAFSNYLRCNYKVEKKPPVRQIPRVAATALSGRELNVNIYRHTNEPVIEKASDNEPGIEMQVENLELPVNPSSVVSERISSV

[7] = molecular target: T4, h5-HT2C (human 5-HT2C-INI receptor); test: [3H]-inositol phosphate accumulation; assay type: cell-based
[8] = molecular target: T2, m5-HT2A (C57Bl/6 mouse 5-HT2A receptor); test: [3H]-inositol phosphate accumulation; assay type: cell-based
[9] = molecular target: T3, h5-HT2A (human 5-HT2A receptor); test: [3H]-inositol phosphate accumulation; assay type: cell-based
[10] = molecular target: T2, m5-HT2A (C57Bl/6 mouse 5-HT2A receptor); test: saturation radioligand binding, HEK-293 membranes

T2 sequence (P35363 whole entry): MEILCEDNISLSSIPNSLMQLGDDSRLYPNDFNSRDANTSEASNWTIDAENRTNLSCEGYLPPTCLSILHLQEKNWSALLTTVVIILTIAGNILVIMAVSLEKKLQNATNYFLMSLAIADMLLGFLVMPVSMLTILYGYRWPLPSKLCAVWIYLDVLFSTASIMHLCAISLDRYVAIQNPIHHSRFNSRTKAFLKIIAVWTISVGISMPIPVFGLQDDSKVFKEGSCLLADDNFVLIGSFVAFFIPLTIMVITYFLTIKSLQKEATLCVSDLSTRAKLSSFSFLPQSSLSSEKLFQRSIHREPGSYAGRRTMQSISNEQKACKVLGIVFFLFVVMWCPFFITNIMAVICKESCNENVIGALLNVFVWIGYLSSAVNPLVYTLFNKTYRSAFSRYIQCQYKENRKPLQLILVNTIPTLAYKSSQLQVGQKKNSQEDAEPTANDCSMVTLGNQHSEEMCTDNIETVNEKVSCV
T3 sequence (P28223 whole entry): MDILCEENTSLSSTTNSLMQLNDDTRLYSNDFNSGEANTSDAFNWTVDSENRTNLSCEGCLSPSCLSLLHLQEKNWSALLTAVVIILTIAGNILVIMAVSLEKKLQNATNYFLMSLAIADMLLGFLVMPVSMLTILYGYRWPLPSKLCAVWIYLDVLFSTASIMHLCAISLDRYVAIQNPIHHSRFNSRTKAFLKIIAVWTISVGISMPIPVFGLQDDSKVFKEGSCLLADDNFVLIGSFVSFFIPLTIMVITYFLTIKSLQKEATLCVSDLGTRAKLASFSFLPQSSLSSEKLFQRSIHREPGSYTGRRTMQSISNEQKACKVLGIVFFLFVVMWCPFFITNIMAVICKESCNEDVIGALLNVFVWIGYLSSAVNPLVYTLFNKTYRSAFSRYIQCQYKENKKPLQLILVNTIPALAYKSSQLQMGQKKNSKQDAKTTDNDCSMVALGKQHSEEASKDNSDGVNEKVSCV

| SMILES | Kd [1] [nM] | EC50 [2] [nM] | Ki [3] [nM] | Ki [4] [nM] | Ki [5] [nM] | Ki [6] [nM] | EC50 [7] [nM] | EC50 [8] [nM] | EC50 [9] [nM] | Kd [10] [nM] |
| --- | --- | --- | --- | --- | --- | --- | --- | --- | --- | --- |
| CN1C[C@@H](NS(=O)(=O)N(C)C)C[C@@H]2c3cccc4c3c(cn4C)C[C@H]21 [[^3H]-mesulergine] | 2.2 | – | – | – | – | – | – | – | – | – |
| CN(C)[C@@H]1Cc2ccccc2[C@@H](c2ccccc2)C1 [(−)-PAT] | – | 39 | 53 | 116 | 102 | – | – | – | – | – |
| COc1cc(CC(C)N)c(OC)cc1I (racemic) [(±)-DOI] | – | 3.4 | 46.7 | 4 | – | 19.1 | 5.5 | 2.6 | – | – |
| CN(C)[C@H]1Cc2ccccc2[C@H](c2ccccc2)C1 [(+)-PAT] | – | 2110 | 1730 | 332 | 463 | – | – | 352 | 233 | – |
| O=C(c1ccc(F)cc1)C1CCN(CCn2c(=O)[nH]c3ccccc3c2=O)CC1 [[^3H]-ketanserin] | – | – | – | – | – | – | – | – | – | 0.92 |
| Cc1cc2c(cc1Cl)N(C(=O)Nc1ccc(Oc3cccnc3C)nc1)CC2 [SB-242084] | – | – | 0.1 | 96 | 146 | 1.5 | – | – | – | – |
| Cn1ccc2cc3c(cc21)CCN3C(=O)Nc1cccnc1 [SB-206553] | – | – | – | 342 | 676 | – | – | – | – | – |
| Cc1ccc([C@H]2C[C@H](N(C)C)Cc3ccccc32)cc1 [Methyl-PAT, (−)-(2S, 4R)-trans-4-(4′-methyl)-N,N-dimethylaminotetralin] | – | 808 | 868 | 326 | 179 | 128 | 1120 | – | – | – |
